Drawing on patent US20130184280A1, “SUBSTITUTED THIAZOLES AS VEGFR2 KINASE INHIBITORS” (TELIK, INC., priority 2011, published 2013), this text covers IC50 for 23 molecules.

As a reminder, the IC50 is the point on the concentration scale where inhibition reaches its midpoint. High values mean lower potency, low ones higher potency.

Molecules are shown by their SMILES.

Test system in one series: not listed separately
Description: In Vitro Cytotoxicity Assay HL60 (CellTiter-Glo). The class given is cell-based. The following applies: human, HL60 promyelocytic leukemia cells; HL 60 cells, cultured three days. The protocol: (§1) The cell lines HL60 (human promyelocytic leukemia) and HCT116 (human colon carcinoma) were obtained from the American Type Culture Collection, Manassas, Va., U.S.A. All products were used in accordance with manufacturer's directions. The cytotoxicity assays were conducted in triplicate, in each case with solvent control.
(§2) Log-phase cells were trypsinized, collected by centrifugation, and resuspended in a small volume of fresh medium, and the density of viable cells was determined following Trypan Blue staining Cells were diluted in fresh media, the test compounds (concentrations between 0.1 μM and 200 μM, dissolved in DMSO, 50 μL) added immediately after dilution to achieve a final DMSO concentration of 0.5%, then the suspensions added at 150 μL/well to 96-well plates, and incubated overnight to allow attachment in the case of adherent cells. The cells were cultured for three days (about three doubling times). The cells were then collected by centrifugation, and 100 μL of the culture supernatant was replaced by the CellTiter-Glo reagent. After incubation for 15 minutes at room temperature, the plate was read with a luminometer. […] The table gives cytotoxicity IC50s in μm.
On the technique in general: In ATP-based viability assays light output follows the ATP content of the culture.
In the case of `CN(C)Cc1cccc(C(=O)Nc2cccc(-c3csc(-c4cncnc4N)n3)c2)c1` [Compound 55], the IC50 at 3 days was determined as 400 nM. This lies in the sub-micromolar range.

Molecule `Nc1ncncc1-c1nc(-c2ccc(NC(=O)Nc3cccc(C(F)(F)F)c3)cc2)cs1` [Compound 1] gave an IC50 at 3 days of 900 nM.

As to `Nc1ncncc1-c1nc(-c2cccc(NC(=O)Nc3ccccc3)c2)cs1` [Compound 4], the IC50 at 3 days was found to be 200 nM.

For the molecule `Nc1ncncc1-c1nc(-c2cccc(NC(=O)Nc3ccccc3Cl)c2)cs1` [Compound 18], the IC50 at 3 days turned out to be 500 nM.

With `Nc1ncncc1-c1nc(-c2cccc(NC(=O)Nc3cccc(F)c3)c2)cs1` [Compound 12], the IC50 at 3 days amounted to 100 nM.

For the molecule `Nc1ncncc1-c1nc(-c2cccc(NC(=O)c3cccc(CNCCO)c3)c2)cs1` [Compound 56], half-maximal inhibition (IC50 at 3 days) was put at 2000 nM.

In turn, `CCc1ccc(NC(=O)Nc2cccc(-c3csc(-c4cncnc4N)n3)c2)cc1` [Compound 28] came in with an IC50 at 3 days of 1000 nM.

In turn, `Nc1ncncc1-c1nc(-c2cccc(NC(=O)NCc3ccccc3)c2)cs1` [Compound 58] yielded an IC50 at 3 days of 400 nM.

In turn, `Nc1ncncc1-c1nc(-c2cccc(NC(=O)Nc3ccc4c(c3)OCO4)c2)cs1` [Compound 72] gave an IC50 at 3 days of 300 nM.

In turn, `Nc1ncncc1-c1nc(-c2cccc(NC(=O)Nc3cccc(C(F)(F)F)c3)c2)cs1` [Compound 39] registered an IC50 at 3 days of 1000 nM.

Molecule `Nc1ncncc1-c1nc(-c2cccc(NC(=O)Nc3ccc(Cl)cc3)c2)cs1` [Compound 16] showed a concentration for half-maximal inhibition (IC50) at 3 days of 1000 nM.

Molecule `Nc1ncncc1-c1nc(-c2cccc(NC(=O)Nc3ccc(Cl)c(C(F)(F)F)c3)c2)cs1` [Compound 22] came in with an IC50 at 3 days of 1000 nM.

`Nc1ncncc1-c1nc(-c2cccc(NC(=O)Nc3ccccc3C(F)(F)F)c2)cs1` [Compound 20] displayed an IC50 at 3 days of 700 nM.

Molecule `Nc1ncncc1-c1nc(-c2cccc(NC(=O)c3ccc(F)c(F)c3)c2)cs1` [Compound 9] came in with an IC50 at 3 days of 20000 nM.

Molecule `Cc1ccccc1NC(=O)Nc1cccc(-c2csc(-c3cncnc3N)n2)c1` [Compound 19] gave an IC50 at 3 days of 900 nM.

For the molecule `Cc1ccc(NC(=O)Nc2cccc(-c3csc(-c4cncnc4N)n3)c2)cc1C` [Compound 27], the IC50 at 3 days came to 4000 nM. Compared with the last molecule, the IC50 at 3 days is about 4.4-fold higher.

In turn, `Nc1ncncc1-c1nc(-c2cccc(NC(=O)c3ccc(Cl)cc3)c2)cs1` [Compound 8] came in with an IC50 at 3 days of 300 nM. Against the preceding molecule, the IC50 at 3 days is about 13-fold lower.

In the case of `Nc1ncncc1-c1nc(-c2cccc(NC(=O)c3ccc([N+](=O)[O-])cc3)c2)cs1` [Compound 13], the 50% inhibitory concentration (IC50) at 3 days is > 50000 nM.

Turning to `Nc1ncncc1-c1nc(-c2cccc(NC(=O)c3cccc(CN4CCOCC4)c3)c2)cs1` [Compound 52], the midpoint of inhibition, the IC50 at 3 days, lay at 1000 nM.

Test system in the next series: not listed separately
Kind of series: In Vitro Cytotoxicity Assay HCT116 (CellTiter-Glo). The class given is cell-based. The conditions noted are these: human, HCT116 colon carcinoma cells, cultured three days. The method, then: as §1, §2
`Nc1ncncc1-c1nc(-c2cccc(NC(=O)CN3CCCCC3)c2)cs1` [Compound 67] yielded an IC50 at 3 days of 10000 nM.

Consider `CN(C)Cc1cccc(C(=O)Nc2cccc(-c3csc(-c4cncnc4N)n3)c2)c1` [Compound 55], for which the IC50 at 3 days stood at 2000 nM.

`Nc1ncncc1-c1nc(-c2cccc(NC(=O)Nc3cccc(CO)c3)c2)cs1` [Compound 44] came in with an IC50 at 3 days of 30000 nM.

For `COc1ccccc1C(=O)Nc1cccc(-c2csc(-c3cncnc3N)n2)c1` [Compound 25], it took 10000 nM to reach half-maximal inhibition (IC50 at 3 days).

`Nc1ncncc1-c1nc(-c2cccc(NC(=O)NC3CCCC3)c2)cs1` [Compound 63] came in with an IC50 at 3 days of 7000 nM.

For the molecule `Nc1ncncc1-c1nc(-c2ccc(NC(=O)Nc3cccc(C(F)(F)F)c3)cc2)cs1` [Compound 1], the IC50 at 3 days came out at 4000 nM.

Consider `Nc1ncncc1-c1nc(-c2cccc(NC(=O)Nc3ccccc3)c2)cs1` [Compound 4], for which the IC50 at 3 days amounted to 6000 nM.

For the molecule `Nc1ncncc1-c1nc(-c2cccc(NC(=O)Nc3ccccc3Cl)c2)cs1` [Compound 18], half-maximal inhibition (IC50 at 3 days) required 30000 nM.

The molecule `Nc1ncncc1-c1nc(-c2cccc(NC(=O)Nc3cccc(F)c3)c2)cs1` [Compound 12] showed an IC50 at 3 days of 40000 nM.

The molecule `Nc1ncncc1-c1nc(-c2cccc(NC(=O)c3cccc(CNCCO)c3)c2)cs1` [Compound 56] came in with an IC50 at 3 days of 3000 nM.

Consider `CCc1ccc(NC(=O)Nc2cccc(-c3csc(-c4cncnc4N)n3)c2)cc1` [Compound 28], for which 8000 nM corresponded to half-maximal inhibition (IC50 at 3 days).

`Nc1ncncc1-c1nc(-c2cccc(NC(=O)NCc3ccccc3)c2)cs1` [Compound 58]: half-maximal inhibition (IC50 at 3 days) required 4000 nM. This IC50 at 3 days is about 2-fold lower than that of the molecule before.

The molecule `Nc1ncncc1-c1nc(-c2cccc(NC(=O)Nc3ccc4c(c3)OCO4)c2)cs1` [Compound 72] came in with an IC50 at 3 days of 2000 nM.

Regarding `Nc1ncncc1-c1nc(-c2cccc(NC(=O)Nc3cccc(C(F)(F)F)c3)c2)cs1` [Compound 39], the midpoint of inhibition, the IC50 at 3 days, lay at 2000 nM.

In the case of `Nc1ncncc1-c1nc(-c2cccc(NC(=O)Nc3ccc(Cl)cc3)c2)cs1` [Compound 16], the IC50 at 3 days amounted to 10000 nM.

In turn, `Nc1ncncc1-c1nc(-c2cccc(NC(=O)Nc3ccc(Cl)c(C(F)(F)F)c3)c2)cs1` [Compound 22] had an IC50 at 3 days of 1000 nM.

`Nc1ncncc1-c1nc(-c2cccc(NC(=O)Nc3ccccc3C(F)(F)F)c2)cs1` [Compound 20]: the midpoint of inhibition, the IC50 at 3 days, lay at 50000 nM.

`Nc1ncncc1-c1nc(-c2cccc(NC(=O)c3ccc(F)c(F)c3)c2)cs1` [Compound 9] displayed an IC50 at 3 days of 50000 nM.

With `Cc1ccccc1NC(=O)Nc1cccc(-c2csc(-c3cncnc3N)n2)c1` [Compound 19], the IC50 at 3 days is > 50000 nM.

In turn, `Cc1ccc(NC(=O)Nc2cccc(-c3csc(-c4cncnc4N)n3)c2)cc1C` [Compound 27] came in with an IC50 at 3 days of 2000 nM.

`Nc1ncncc1-c1nc(-c2cccc(NC(=O)c3ccc(Cl)cc3)c2)cs1` [Compound 8]: the IC50 at 3 days was 20000 nM.

With `Nc1ncncc1-c1nc(-c2cccc(NC(=O)c3ccc([N+](=O)[O-])cc3)c2)cs1` [Compound 13], the IC50 at 3 days is > 50000 nM.

`Nc1ncncc1-c1nc(-c2cccc(NC(=O)c3cccc(CN4CCOCC4)c3)c2)cs1` [Compound 52] had an IC50 at 3 days of 4000 nM.

For a further series, the target named is T1, VEGFR2 kinase (Homo sapiens, UniProt P35968).
T1 construct: purchased InVitrogen
T1 sequence (P35968 20-1356): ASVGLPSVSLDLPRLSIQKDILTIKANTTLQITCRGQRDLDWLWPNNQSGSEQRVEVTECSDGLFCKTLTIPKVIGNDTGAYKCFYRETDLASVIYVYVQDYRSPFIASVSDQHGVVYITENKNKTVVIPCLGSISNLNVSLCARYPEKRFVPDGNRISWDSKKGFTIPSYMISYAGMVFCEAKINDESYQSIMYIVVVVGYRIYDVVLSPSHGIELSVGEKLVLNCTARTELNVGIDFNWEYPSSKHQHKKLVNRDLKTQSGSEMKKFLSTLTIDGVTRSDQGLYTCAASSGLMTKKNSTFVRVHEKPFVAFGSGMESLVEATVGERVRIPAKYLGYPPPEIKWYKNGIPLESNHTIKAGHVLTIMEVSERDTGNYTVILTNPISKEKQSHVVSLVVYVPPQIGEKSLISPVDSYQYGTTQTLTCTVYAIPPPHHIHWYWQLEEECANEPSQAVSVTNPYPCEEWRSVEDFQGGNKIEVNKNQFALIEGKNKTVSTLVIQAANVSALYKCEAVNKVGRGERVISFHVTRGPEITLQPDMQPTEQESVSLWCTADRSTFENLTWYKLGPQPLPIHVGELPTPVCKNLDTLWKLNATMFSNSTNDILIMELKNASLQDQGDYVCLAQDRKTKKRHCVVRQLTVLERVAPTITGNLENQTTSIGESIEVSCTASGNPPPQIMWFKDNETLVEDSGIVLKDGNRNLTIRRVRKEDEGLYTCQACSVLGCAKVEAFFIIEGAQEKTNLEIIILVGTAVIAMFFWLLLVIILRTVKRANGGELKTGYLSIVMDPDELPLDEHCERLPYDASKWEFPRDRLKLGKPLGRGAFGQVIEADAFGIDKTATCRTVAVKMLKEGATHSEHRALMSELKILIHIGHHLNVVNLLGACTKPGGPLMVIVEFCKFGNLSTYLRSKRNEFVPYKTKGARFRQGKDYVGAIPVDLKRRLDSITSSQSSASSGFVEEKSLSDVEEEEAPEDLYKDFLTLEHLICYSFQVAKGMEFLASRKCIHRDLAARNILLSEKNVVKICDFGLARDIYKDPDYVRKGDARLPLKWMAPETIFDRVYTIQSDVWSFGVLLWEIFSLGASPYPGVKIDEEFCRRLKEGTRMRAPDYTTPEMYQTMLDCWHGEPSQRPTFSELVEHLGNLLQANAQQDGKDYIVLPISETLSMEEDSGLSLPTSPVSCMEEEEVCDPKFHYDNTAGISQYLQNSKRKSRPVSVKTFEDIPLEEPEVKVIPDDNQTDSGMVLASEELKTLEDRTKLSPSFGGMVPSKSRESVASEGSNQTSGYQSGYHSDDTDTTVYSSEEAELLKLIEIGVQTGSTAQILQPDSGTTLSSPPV
Kind of series: In Vitro VEGFR2 Kinase Assay. The conditions noted are these: FP; CSKtide substrate, 60 minutes at room temperature. The class given is biochemical. The method, then: In Vitro VEGFR2 Kinase Assay
50 ng/well VEGFR2 kinase (from InVitrogen) was mixed in buffer (14.5 μL/well). To this were added, 0.5 μL of the compound of this invention at a concentration of 2.5% in DMSO. After incubatiuon for 5 minutes at room temperature, 5 μL of substrate (CSKtide, 400 nM) and 8 μL ATP were added. The mixture was incubated for 60 minutes at room temperature and 60 uL of binding reagent (beads) was added. After incubation overnight at room temperature, the plate was read with a LJL plate reader.
The molecule `Nc1ncncc1-c1nc(-c2cccc(NC(=O)CN3CCCCC3)c2)cs1` [Compound 67] yielded an IC50 of 300 nM.

Turning to `CN(C)Cc1cccc(C(=O)Nc2cccc(-c3csc(-c4cncnc4N)n3)c2)c1` [Compound 55], inhibition was half-maximal at 400 nM (IC50).

Molecule `Nc1ncncc1-c1nc(-c2cccc(NC(=O)Nc3cccc(CO)c3)c2)cs1` [Compound 44] yielded a 50% inhibitory concentration (IC50) of 30 nM.

In turn, `COc1ccccc1C(=O)Nc1cccc(-c2csc(-c3cncnc3N)n2)c1` [Compound 25] yielded an IC50 of 300 nM.

Turning to `Nc1ncncc1-c1nc(-c2cccc(NC(=O)NC3CCCC3)c2)cs1` [Compound 63], the IC50 worked out at 70 nM.

Turning to `Nc1ncncc1-c1nc(-c2cccc(NC(=O)Nc3ccccc3)c2)cs1` [Compound 4], the IC50 worked out at 10 nM.

As for `Nc1ncncc1-c1nc(-c2cccc(NC(=O)Nc3ccccc3Cl)c2)cs1` [Compound 18], the half-inhibitory concentration (IC50) amounted to 30 nM.

`Nc1ncncc1-c1nc(-c2cccc(NC(=O)Nc3cccc(F)c3)c2)cs1` [Compound 12] had an IC50 of 100 nM.

In turn, `Nc1ncncc1-c1nc(-c2cccc(NC(=O)c3cccc(CNCCO)c3)c2)cs1` [Compound 56] displayed an IC50 of 100 nM. In other words, the sub-micromolar range.

`CCc1ccc(NC(=O)Nc2cccc(-c3csc(-c4cncnc4N)n3)c2)cc1` [Compound 28] showed an IC50 of 70 nM.

For the molecule `Nc1ncncc1-c1nc(-c2cccc(NC(=O)NCc3ccccc3)c2)cs1` [Compound 58], the IC50 was 60 nM.

`Nc1ncncc1-c1nc(-c2cccc(NC(=O)Nc3ccc4c(c3)OCO4)c2)cs1` [Compound 72] registered an IC50 of 60 nM.

As for `Nc1ncncc1-c1nc(-c2cccc(NC(=O)Nc3cccc(C(F)(F)F)c3)c2)cs1` [Compound 39], the midpoint of inhibition, the IC50, lay at 20 nM.

In the case of `Nc1ncncc1-c1nc(-c2cccc(NC(=O)Nc3ccc(Cl)cc3)c2)cs1` [Compound 16], half-maximal inhibition (IC50) was put at 4 nM.

As for `Nc1ncncc1-c1nc(-c2cccc(NC(=O)Nc3ccc(Cl)c(C(F)(F)F)c3)c2)cs1` [Compound 22], the IC50 was found to be 20 nM.

For the molecule `Nc1ncncc1-c1nc(-c2cccc(NC(=O)Nc3ccccc3C(F)(F)F)c2)cs1` [Compound 20], the IC50 turned out to be 50 nM.

`Nc1ncncc1-c1nc(-c2cccc(NC(=O)c3ccc(F)c(F)c3)c2)cs1` [Compound 9]: the IC50 is 300 nM.

Molecule `Cc1ccccc1NC(=O)Nc1cccc(-c2csc(-c3cncnc3N)n2)c1` [Compound 19] had an IC50 of 70 nM.

Consider `Cc1ccc(NC(=O)Nc2cccc(-c3csc(-c4cncnc4N)n3)c2)cc1C` [Compound 27], for which half-maximal inhibition (IC50) required 40 nM. This IC50 is about 1.8-fold lower than that of the molecule before.

Take `Nc1ncncc1-c1nc(-c2cccc(NC(=O)c3ccc(Cl)cc3)c2)cs1` [Compound 8]: the IC50 came to 70 nM.

`Nc1ncncc1-c1nc(-c2cccc(NC(=O)c3ccc([N+](=O)[O-])cc3)c2)cs1` [Compound 13] gave an IC50 of 200 nM. This IC50 is about 2.9-fold higher than that of the molecule before.

`Nc1ncncc1-c1nc(-c2cccc(NC(=O)c3cccc(CN4CCOCC4)c3)c2)cs1` [Compound 52] registered an IC50 of 500 nM.
